Measurements published in patent publication US20090018134A1, “Compounds - 945” (AstraZeneca AB, priority 2007, published 2009).

Assays:
mTOR [1] = target: T1, mTOR (Homo sapiens, UniProt P42345); experiment: In Vitro mTOR Kinase Assay (Echo), Test (a)(ii); format: biochemical; details: table of enzyme assay Test (a)(ii); read-out: Test (a)(ii) IC50
T1 construct: FLAG; made in house
Procedure, shortened: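 FLAG-tagged truncated mTOR (residues 1362-2549), expressed in HEK293 and purified via the FLAG tag, phosphorylated a biotinylated peptide over 2 hours at room temperature. EDTA stopped the reaction. Phospho-T389 was detected overnight by AlphaScreen using the p70 S6K T389 antibody with Protein A/streptavidin beads; IC50 reported.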

mTOR [2] = target: T1, mTOR; experiment: mTOR Kinase Assay (Echo); format: biochemical

T1 sequence (P42345 1362-2549): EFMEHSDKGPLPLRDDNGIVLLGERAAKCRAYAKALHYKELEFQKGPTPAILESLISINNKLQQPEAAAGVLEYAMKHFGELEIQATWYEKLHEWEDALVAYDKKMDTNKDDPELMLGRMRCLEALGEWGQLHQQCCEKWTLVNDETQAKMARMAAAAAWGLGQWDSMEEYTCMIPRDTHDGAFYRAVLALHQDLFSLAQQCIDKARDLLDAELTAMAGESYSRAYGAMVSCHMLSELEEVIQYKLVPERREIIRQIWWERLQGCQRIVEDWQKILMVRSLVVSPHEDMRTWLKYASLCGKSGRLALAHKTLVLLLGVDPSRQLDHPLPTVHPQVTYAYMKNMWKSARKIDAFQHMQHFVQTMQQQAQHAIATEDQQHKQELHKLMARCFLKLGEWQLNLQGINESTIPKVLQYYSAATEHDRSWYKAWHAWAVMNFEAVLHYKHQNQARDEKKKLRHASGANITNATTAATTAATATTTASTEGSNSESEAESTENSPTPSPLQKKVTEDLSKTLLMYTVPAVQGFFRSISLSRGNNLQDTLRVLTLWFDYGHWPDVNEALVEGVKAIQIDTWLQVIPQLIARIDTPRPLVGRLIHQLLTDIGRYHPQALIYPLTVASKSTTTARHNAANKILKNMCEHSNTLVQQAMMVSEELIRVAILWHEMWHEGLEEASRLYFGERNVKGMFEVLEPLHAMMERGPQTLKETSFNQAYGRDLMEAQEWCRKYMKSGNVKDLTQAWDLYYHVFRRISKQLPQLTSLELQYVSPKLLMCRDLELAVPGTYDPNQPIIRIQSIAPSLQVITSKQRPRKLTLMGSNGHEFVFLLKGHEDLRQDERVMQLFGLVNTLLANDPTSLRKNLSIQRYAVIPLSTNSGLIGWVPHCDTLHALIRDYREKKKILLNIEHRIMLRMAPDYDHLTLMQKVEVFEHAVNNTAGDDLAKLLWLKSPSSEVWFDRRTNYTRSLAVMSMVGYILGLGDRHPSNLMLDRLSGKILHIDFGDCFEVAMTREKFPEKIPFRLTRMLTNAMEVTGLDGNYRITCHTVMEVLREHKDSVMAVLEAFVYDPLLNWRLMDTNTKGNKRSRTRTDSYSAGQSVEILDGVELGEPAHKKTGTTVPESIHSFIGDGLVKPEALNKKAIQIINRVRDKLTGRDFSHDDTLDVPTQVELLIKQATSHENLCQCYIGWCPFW

With `N#CCCNC(=O)Nc1ccc(-c2nc(N3CCOCC3)cc(C3(S(=O)(=O)c4ccc(F)cc4)CC3)n2)cc1` [Example 36am, 3-(2-cyanoethyl)-1-[4-[4-[1-(4-fluorophenyl)sulfonylcyclopropyl]-6-morpholin-4-ylpyrimidin-2-yl]phenyl]urea] the IC50 (mTOR [1]) was 25.9 nM and the IC50 (mTOR [2]) was 27.7 nM.
Molecule `Cc1cnc(NC(=O)Nc2ccc(-c3nc(N4CCOC[C@@H]4C)cc(C4(S(C)(=O)=O)CC4)n3)cc2)cn1` [Example 36az, 3-[4-[4-[(3S)-3-methylmorpholin-4-yl]-6-(1-methylsulfonylcyclopropyl)pyri-midin-2-yl]phenyl]-1-(5-methylpyrazin-2-yl)urea] has an IC50 (mTOR [1]) of 1.05 nM and an IC50 (mTOR [2]) of 1.49 nM.
`C[C@H]1COCCN1c1cc(C2(S(C)(=O)=O)CC2)nc(-c2ccc(NC(=O)Nc3ncco3)cc2)n1` [Example 36ba, 1-[4-[4-[(3S)-3-methylmorpholin-4-yl]-6-(1-methylsulfonylcyclopropyl)pyri-midin-2-yl]phenyl]-3-(1,3-oxazol-2-yl)urea] was tested, and the IC50 (mTOR [1]) was 1.67 nM and the IC50 (mTOR [2]) was 3.12 nM.
`C[C@H]1COCCN1c1cc(C2(S(C)(=O)=O)CC2)nc(-c2ccc(NC(=O)NCCCO)cc2)n1` [Example 36bb, 3-(3-hydroxypropyl)-1-[4-[4-[(3S)-3-methylmorpholin-4-yl]-6-(1-methylsulfonylcyclopropyl)pyri-midin-2-yl]phenyl]urea] gave an IC50 (mTOR [1]) of 5.13 nM and an IC50 (mTOR [2]) of 20.5 nM.
`C[C@H]1COCCN1c1cc(C2(S(=O)(=O)c3ccccc3)CC2)nc(-c2ccc(NC(=O)NC3CC3)cc2)n1` [Example 36bc, 1-[4-[4-[1-(benzenesulfonyl)cyclopropyl]-6-[(3S)-3-methylmorpholin-4-yl]pyrimidin-2-yl]phenyl]-3-cyclopropylurea] showed an IC50 (mTOR [1]) of 2.85 nM and an IC50 (mTOR [2]) of 2.05 nM.
`CCNC(=O)Nc1ccc(-c2nc(N3CCOC[C@@H]3C)cc(C3(S(=O)(=O)c4ccccc4)CC3)n2)cc1` [Example 36bg, 3-[4-[4-[1-(benzenesulfonyl)cyclopropyl]-6-[(3S)-3-methylmorpholin-4-yl]pyrimidin-2-yl]phenyl]-1-ethylurea] was tested, and the IC50 (mTOR [1]) was 1.89 nM and the IC50 (mTOR [2]) was 0.922 nM.
`C[C@H]1COCCN1c1cc(C2(S(=O)(=O)c3ccccc3)CC2)nc(-c2ccc(NC(=O)NCCO)cc2)n1` [Example 36bh, 1-[4-[4-[1-(benzenesulfonyl)cyclopropyl]-6-[(3S)-3-methylmorpholin-4-yl]pyrimidin-2-yl]phenyl]-3-(2-hydroxyethyl)urea] showed an IC50 (mTOR [1]) of 1.37 nM and an IC50 (mTOR [2]) of 1.21 nM.
For `CNC(=O)Nc1ccc(-c2nc(N3CCOC[C@@H]3C)cc(C3(S(=O)(=O)c4ccccc4)CC3)n2)cc1` [Example 36bj, 1-[4-[4-[1-(benzenesulfonyl)cyclopropyl]-6-[(3S)-3-methylmorpholin-4-yl]pyrimidin-2-yl]phenyl]-3-methylurea], the IC50 (mTOR [1]) was 1.06 nM and the IC50 (mTOR [2]) was 0.621 nM.
`C[C@H]1COCCN1c1cc(C2(S(=O)(=O)c3ccccc3)CC2)nc(-c2ccc(NC(=O)NCCCO)cc2)n1` [Example 36bl, 1-[4-[4-[1-(benzenesulfonyl)cyclopropyl]-6-[(3S)-3-methylmorpholin-4-yl]pyrimidin-2-yl]phenyl]-3-(3-hydroxypropyl)urea] showed an IC50 (mTOR [1]) of 3.33 nM and an IC50 (mTOR [2]) of 2.08 nM.
Work on `C[C@H]1COCCN1c1cc(C2(S(=O)(=O)c3ccccc3)CCC2)nc(-c2ccc(NC(=O)NC3CC3)cc2)n1` [Example 36bs, 1-[4-[4-[1-(benzenesulfonyl)cyclobutyl]-6-[(3S)-3-methylmorpholin-4-yl]pyrimidin-2-yl]phenyl]-3-cyclopropylurea] yielded an IC50 (mTOR [1]) of 2.64 nM and an IC50 (mTOR [2]) of 1.61 nM.
In the case of `C[C@H]1COCCN1c1cc(C2(S(=O)(=O)c3ccccc3)CCC2)nc(-c2ccc(NC(=O)NCCO)cc2)n1` [Example 36bt, 1-[4-[4-[1-(benzenesulfonyl)cyclobutyl]-6-[(3S)-3-methylmorpholin-4-yl]pyrimidin-2-yl]phenyl]-3-(2-hydroxyethyl)urea], the IC50 (mTOR [1]) is reported as 1.88 nM and the IC50 (mTOR [2]) is reported as 1.05 nM.
